Experimental data: the NIST ThermoML archive (doi:10.1021/je200068x)
± gives the expanded uncertainty stated by the source.

Settings: for surface tension liquid-gas: Drop weight; for mass density: 101.33 kPa, Liquid

Compound `C[n+]1ccn(CCCN)c1.F[B-](F)(F)F` [1-(3-aminopropyl)-3-methyl-1H-imidazolium tetrafluoroborate] has a surface tension liquid-gas (293.15 K) of 47.2 ± 0.5 mN/m, a mass density (293.15 K) of 1358.01 ± 1.8 kg/m3 and a surface tension liquid-gas (298.15 K) of 47.1 ± 0.5 mN/m. The mass density (298.15 K) was 1354.6 ± 1.7 kg/m3, the surface tension liquid-gas (303.15 K) was 46.4 ± 0.5 mN/m and the mass density (303.15 K) was 1349.29 ± 1.7 kg/m3. It also gave a surface tension liquid-gas (308.15 K) of 46.2 ± 0.5 mN/m, a mass density (308.15 K) of 1345.68 ± 1.7 kg/m3 and a surface tension liquid-gas (313.15 K) of 46.1 ± 0.5 mN/m. The mass density (313.15 K) was 1343.18 ± 1.7 kg/m3, the surface tension liquid-gas (318.15 K) was 45.4 ± 0.5 mN/m and the mass density (318.15 K) was 1336.97 ± 1.7 kg/m3. For the same compound, the surface tension liquid-gas (323.15 K) was 45.2 ± 0.5 mN/m, the mass density (323.15 K) was 1333.57 ± 1.7 kg/m3 and the surface tension liquid-gas (328.15 K) was 44.8 ± 0.5 mN/m. It also gave a mass density (328.15 K) of 1328.96 ± 1.6 kg/m3, a surface tension liquid-gas (333.15 K) of 44.6 ± 0.5 mN/m and a mass density (333.15 K) of 1325.35 ± 1.6 kg/m3. The surface tension liquid-gas (338.15 K) was 44.1 ± 0.5 mN/m, the mass density (338.15 K) was 1321.05 ± 1.6 kg/m3 and the surface tension liquid-gas (343.15 K) was 43.8 ± 0.5 mN/m. The mass density (343.15 K) was 1317.25 ± 1.6 kg/m3, the surface tension liquid-gas (348.15 K) was 43.4 ± 0.5 mN/m and the mass density (348.15 K) was 1313.04 ± 1.6 kg/m3. The surface tension liquid-gas (353.15 K) was 43.1 ± 0.5 mN/m and the mass density (353.15 K) was 1309.44 ± 1.6 kg/m3.
With `Cn1cc[n+](CCN)c1.F[B-](F)(F)F` [3-(2-aminoethyl)-1-methyl-1H-imidazolium tetrafluoroborate] the surface tension liquid-gas (293.15 K) was 53.8 ± 0.5 mN/m, the mass density (293.15 K) was 1427.12 ± 2 kg/m3 and the surface tension liquid-gas (298.15 K) was 53.5 ± 0.5 mN/m. It also gave a mass density (298.15 K) of 1422.31 ± 2 kg/m3, a surface tension liquid-gas (303.15 K) of 53.2 ± 0.5 mN/m and a mass density (303.15 K) of 1418.96 ± 2 kg/m3. For the same compound, the surface tension liquid-gas (308.15 K) was 52.4 ± 0.5 mN/m, the mass density (308.15 K) was 1413.23 ± 2 kg/m3 and the surface tension liquid-gas (313.15 K) was 52 ± 0.5 mN/m. For the same compound, the mass density (313.15 K) was 1409.18 ± 1.9 kg/m3, the surface tension liquid-gas (318.15 K) was 51.5 ± 0.5 mN/m and the mass density (318.15 K) was 1404.69 ± 1.9 kg/m3. The surface tension liquid-gas (323.15 K) was 51.3 ± 0.5 mN/m, the mass density (323.15 K) was 1401.78 ± 1.9 kg/m3 and the surface tension liquid-gas (328.15 K) was 50.8 ± 0.5 mN/m. The mass density (328.15 K) was 1395.42 ± 1.9 kg/m3, the surface tension liquid-gas (333.15 K) was 50.3 ± 0.5 mN/m and the mass density (333.15 K) was 1391.77 ± 1.9 kg/m3. For the same compound, the surface tension liquid-gas (338.15 K) was 50.2 ± 0.5 mN/m, the mass density (338.15 K) was 1388.54 ± 1.9 kg/m3 and the surface tension liquid-gas (343.15 K) was 49.8 ± 0.5 mN/m. The mass density (343.15 K) was 1384.79 ± 1.9 kg/m3, the surface tension liquid-gas (348.15 K) was 49.4 ± 0.5 mN/m and the mass density (348.15 K) was 1380.94 ± 1.9 kg/m3. The surface tension liquid-gas (353.15 K) was 48.8 ± 0.5 mN/m and the mass density (353.15 K) was 1375.11 ± 1.8 kg/m3.
